Data: PMC6835155, “Lessons from LIMK1 enzymology and their impact on inhibitor design” (Biochemical Journal, 2019)
Where a name gives a salt, the structure may show the parent alone.

Assays:
[1] = molecular target: T1, LIMK1KD (Homo sapiens, UniProt P53667); experiment: Differential (dynamic) scanning fluorimetry (DSF) assay, LIMK1KD; type: binding; details: 2 µM LIMK1KD, compound 10 µM, single shot; for ΔTm at 10 µM: read-out: TM Shift LIMK1 (K)
T1 construct: His6 (N, cleaved yes); made in house; host or cells: baculovirus; Sf9 for virus, TriEx insect cells for expression
T1 sequence (P53667 330-637): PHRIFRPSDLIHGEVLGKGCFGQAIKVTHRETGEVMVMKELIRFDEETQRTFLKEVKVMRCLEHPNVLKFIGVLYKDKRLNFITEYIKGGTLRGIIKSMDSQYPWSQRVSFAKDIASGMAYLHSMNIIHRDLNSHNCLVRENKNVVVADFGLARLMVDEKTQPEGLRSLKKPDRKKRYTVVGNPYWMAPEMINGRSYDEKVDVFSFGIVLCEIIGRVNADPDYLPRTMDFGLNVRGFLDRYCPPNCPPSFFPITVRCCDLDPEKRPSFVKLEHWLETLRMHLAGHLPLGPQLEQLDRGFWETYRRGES

[2] = molecular target: T2, LIMK2KD (Homo sapiens, UniProt P53671); experiment: Differential (dynamic) scanning fluorimetry (DSF) assay, LIMK2KD; type: binding; details: LIMK2KD, compound 10 µM, single shot; for ΔTm at 10 µM: read-out: TM Shift LIMK2 (K)
T2 construct: The cDNA coding for LIMK2 residues 330 to 632 was PCR amplified; His6 (N, cleaved yes); made in house; host or cells: baculovirus; Sf9 for virus, TriEx insect cells for expression
T2 sequence (P53671 330-632): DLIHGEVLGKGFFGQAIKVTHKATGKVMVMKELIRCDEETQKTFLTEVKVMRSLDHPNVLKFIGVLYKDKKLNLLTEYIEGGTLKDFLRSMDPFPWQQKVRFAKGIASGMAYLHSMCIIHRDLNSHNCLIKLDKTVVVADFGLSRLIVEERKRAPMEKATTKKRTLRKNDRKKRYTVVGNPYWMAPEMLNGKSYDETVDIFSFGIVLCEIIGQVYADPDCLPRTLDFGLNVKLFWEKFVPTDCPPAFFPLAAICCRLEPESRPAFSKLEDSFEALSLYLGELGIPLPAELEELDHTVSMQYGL

Compound	ΔTm at 10 µM [1] [°C]	ΔTm at 10 µM [2] [°C]	TM Shift LIMK1 (K) [1] [K]	TM Shift LIMK2 (K) [2] [K]	other results
O=c1ncn2nc(Sc3ccc(F)cc3F)ccc2c1-c1c(Cl)cccc1Cl [VX-745]	0.6	1.3	–	–	–
C1=C/COCc2cc(ccc2OCCN2CCCC2)Nc2nccc(n2)-c2cccc(c2)COC/1 [Pacritinib (SB1518), Pacritinib]	1.6	1.5	–	–	–
COc1ncc(-c2ccc3nccc(-c4ccnnc4)c3c2)cc1NS(=O)(=O)c1ccc(F)cc1F [GSK2126458 (GSK458)]	–	–	1.2	0.9	–
Cc1ccc(S(=O)(=O)/C=C/C#N)cc1 [BAY 11-7082]	–	–	-0.8	0.2	–
S=C(NCc1ccc2c(c1)OCO2)N1CCN(c2ncnc3c2oc2ccccc23)CC1 [Amuvatinib (MP-470), Amuvatinib]	-0.3	2.3	–	–	–
Cn1c(=O)n(-c2ccc(C(C)(C)C#N)cc2)c2c3cc(-c4cnc5ccccc5c4)ccc3ncc21 [Dactolisib]	–	–	0.3	–	TM Shift LIMK1 (K) ([1]; listed as BEZ235 (NVP-BEZ235, Dactolisib)): -0.1 K; TM Shift LIMK2 (K) ([2]; 10 µM): -0.3 K; TM Shift LIMK2 (K) ([2]; listed as BEZ235 (NVP-BEZ235, Dactolisib), 10 µM): 0.1 K
C=CC(=O)Nc1cccc(Oc2nc(Nc3ccc(N4CCN(C)CC4)cc3)ncc2Cl)c1 [WZ3146]	–	–	1.9	1.5	–
COc1cc(N2CCC(N)CC2)ccc1Nc1ncc(Cl)c(-c2c[nH]c3ccccc23)n1 [AZD3463]	–	–	2.5	3.1	–
O=C(Nc1ccc(OC(F)(F)F)cc1)c1sccc1NCc1ccnc2ccccc12 [OSI-930]	0.7	6.2	–	–	–
NC(=O)c1ccc(N(C(N)=O)c2c(F)cccc2F)nc1-c1ccc(F)cc1F [VX-702]	0.6	-0.6	–	–	–
COc1ccc(C(=O)Nc2sc3c(c2C(N)=O)CCCC3)cc1OC [TCS 359]	–	–	1.3	1.1	–
N#CCNC(=O)c1ccc(-c2ccnc(Nc3ccc(N4CCOCC4)cc3)n2)cc1 [Momelotinib]	–	–	6.3	–	TM Shift LIMK2 (K) ([2]; 10 µM): 4.2 K
O=C(NCc1ccccc1)c1csc(Nc2ccncn2)n1 [Thiazovivin]	–	–	1.1	1.0	–
CC1(C)CNc2cc(NC(=O)c3cccnc3NCc3ccncc3)ccc21 [Motesanib Diphosphate (AMG-706), Motesanib Diphosphate]	0.6	0.5	–	–	–
O=C(NOCC1CC1)c1ccc(F)c(F)c1Nc1ccc(I)cc1Cl [PD184352 (CI-1040)]	0.1	0.9	–	–	–
CS(=O)(=O)N1CCN(Cc2cc3nc(-c4cccc5[nH]ncc45)nc(N4CCOCC4)c3s2)CC1 [GDC-0941]	–	–	-0.3	–	TM Shift LIMK2 (K) ([2]; 10 µM): -0.4 K
Cc1c(C(=O)N2CCOc3ccc(-c4ccc(N)nc4)cc3C2)ccc(S(C)(=O)=O)c1F [XL388]	–	–	-1.4	2.7	–

Compound	ΔTm at 10 µM [1] [°C]	ΔTm at 10 µM [2] [°C]	TM Shift LIMK1 (K) [1] [K]	TM Shift LIMK2 (K) [2] [K]	other results
CO[C@H]1C[C@@H]2CC[C@@H](C)[C@@](O)(O2)C(=O)C(=O)N2CCCC[C@H]2C(=O)O[C@H]([C@H](C)C[C@@H]2CC[C@@H](OC(=O)C(C)(CO)CO)[C@H](OC)C2)CC(=O)[C@H](C)/C=C(\C)[C@@H](O)[C@@H](OC)C(=O)[C@H](C)C[C@H](C)/C=C/C=C/C=C/1C [Temsirolimus (CCI-779, NSC 683864), Temsirolimus]	-0.7	0	–	–	–
O=P(O)(O)C(O)(Cn1ccnc1)P(=O)(O)O [Zoledronic Acid]	-0.7	1.3	–	–	–
CCc1ccc(/C=C2/SC(=S)NC2=O)cc1 [10058-F4]	–	–	0.3	1.7	–
COc1ccc(-c2ccc3ncc4c(c3c2)n(-c2ccc(N3CCNCC3)c(C(F)(F)F)c2)c(=O)n4C)cn1 [BGT226 (NVP-BGT226)]	-0.1	-0.7	–	–	–
CCO.N#CC(=C(/N)Sc1ccccc1N)/C(C#N)=C(\N)Sc1ccccc1N [U0126-EtOH]	–	–	-1.1	2.4	–
CC1(COc2ccc3c(c2)ncn3-c2ccc3cccc(N4CCC(N)CC4)c3n2)COC1 [Crenolanib (CP-868596), Crenolanib]	1	0.5	–	–	–
O=C(c1cccc(Cl)c1F)N1CCN(Cc2cccc(Nc3nccs3)n2)CC1 [MK-8745]	–	–	1.0	-0.3	–
CO[C@H]1C[C@@H]2CC[C@@H](C)[C@@](O)(O2)C(=O)C(=O)N2CCCC[C@H]2C(=O)O[C@H]([C@H](C)C[C@@H]2CC[C@@H](OP(C)(C)=O)[C@H](OC)C2)CC(=O)[C@H](C)/C=C(\C)[C@@H](O)[C@@H](OC)C(=O)[C@H](C)C[C@H](C)/C=C/C=C/C=C/1C [Ridaforolimus (Deforolimus, MK-8669), Ridaforolimus]	0.1	0.2	–	–	–
CC(C)NC[C@@H](C(=O)N1CCN(c2ncnc3c2[C@H](C)C[C@H]3O)CC1)c1ccc(Cl)cc1 [GDC-0068]	–	–	-0.4	–	TM Shift LIMK2 (K) ([2]; 10 µM): -0.4 K
O=C1NC(=O)[C@@H](c2cn3c4c(cccc24)CCC3)[C@@H]1c1c[nH]c2ccccc12 [Tivantinib]	0	0.6	–	–	–
Cl.Cl.NC1(c2ccc(-c3nc4ccn5c(=O)[nH]nc5c4cc3-c3ccccc3)cc2)CCC1 [MK-2206 2HCl]	–	–	0.4	-1.1	–
COc1ccc(-c2cc3c(C)nc(N)nc3n([C@H]3CC[C@H](OCCO)CC3)c2=O)cn1 [PF-04691502]	–	–	0.9	0.6	–
Cc1[nH]c(/C=C2\C(=O)Nc3ccccc32)c(C)c1CCC(=O)O [Orantinib]	1.9	–	–	–	TM Shift LIMK1 (K) ([1]; listed as TSU-68 (SU6668, Orantinib)): 1.7 K; TM Shift LIMK2 (K) ([2]; 10 µM): 1.0 K; TM Shift LIMK2 (K) ([2]; listed as TSU-68 (SU6668, Orantinib), 10 µM): 2.8 K
CNC(=O)c1cccc(-c2ccc3c(N4CCOC[C@@H]4C)nc(N4CCOC[C@@H]4C)nc3n2)c1 [AZD2014]	0.2	-0.3	–	–	–
CN(C)c1ccc(-c2nc3ncc(Cl)c(N4CCN(CC(=O)Nc5nccs5)CC4)c3[nH]2)cc1 [CCT129202]	–	–	2.4	4.6	–
CNC(=O)c1cc(Oc2ccc(NC(=O)Nc3ccc(Cl)c(C(F)(F)F)c3)cc2)ccn1 [Sorafenib]	–	–	-0.7	–	–
O=c1c(O)c(-c2ccc(O)c(O)c2)oc2cc(O)cc(O)c12 [Quercetin]	–	3.9	–	–	–

Now from value to compound, other results behind:

ΔTm at 10 µM [1] [°C]	ΔTm at 10 µM [2] [°C]	TM Shift LIMK1 (K) [1] [K]	TM Shift LIMK2 (K) [2] [K]	Compound	other results
3.4	0	–	–	Cc1cc(Nc2cc(N3CCN(C)CC3)nc(Sc3ccc(NC(=O)C4CC4)cc3)n2)[nH]n1 [VX-680 (Tozasertib, MK-0457), Tozasertib]	–
–	–	-0.2	1.6	Cc1ccc(C(=O)Nc2cccc(C(F)(F)F)c2)cc1Nc1nc(-c2cccnc2)nc2c1cnn2C [NVP-BHG712]	–
–	–	0.0	-2.2	CCN(CC)CCCC(C)Nc1nc(C)cc(Nc2ccc3nc(C)cc(N)c3c2)n1 (stereo not drawn) [NSC 23766]	–
–	–	0.1	2.9	CCn1c(N)c(C(=O)NC)c(=O)c2ccc(C#C[C@@](C)(O)COC)nc21 [SAR131675]	–
0.3	-0.5	–	–	Cc1cccc(-c2nn3c(c2-c2ccnc4ccc(C(N)=O)cc24)CCC3)n1 [Galunisertib]	–
4.4	1.7	–	–	Cc1ncc(-c2ccnc(Nc3ccc(S(C)(=O)=O)cc3)n2)n1C(C)C [AZD5438]	–
–	–	0.3	1.2	Cc1ccc(NC(=O)c2cccc(C(C)(C)C#N)c2)cc1Nc1ccc2ncn(C)c(=O)c2c1 [AZ 628]	–
–	–	0.1	-0.1	C#Cc1cccc(Nc2ncnc3cc(OCCOC)c(OCCO)cc23)c1 [OSI-420]	–
–	–	-0.1	-0.2	Cn1cc(-c2ccc3nnc(C(F)(F)c4ccc5ncccc5c4)n3n2)cn1 [JNJ-38877605]	–
–	–	1.1	–	CN(c1ncccc1CNc1nc(Nc2ccc3c(c2)CC(=O)N3)ncc1C(F)(F)F)S(C)(=O)=O [PF-00562271]	TM Shift LIMK2 (K) ([2]; 10 µM): 0.3 K
–	–	0.0	2.6	Cc1cc(F)c(Nc2ncnc3cc(OCc4ccccc4)ccc23)cc1O.Cl [ZM 323881 HCl]	–
-0.4	0.2	–	–	Cn1cc(-c2ccc3nnc(Sc4ccc5ncccc5c4)n3n2)cn1 [SGX-523]	–
0.4	2.1	–	–	Cn1cnc2c(F)c(Nc3ccc(Br)cc3F)c(C(=O)NOCCO)cc21 [MEK162 (ARRY-162, ARRY-438162)]	–
–	–	0.0	–	Cc1ccc(NC(=O)c2ccc(CN3CCN(C)CC3)cc2)cc1Nc1nccc(-c2cccnc2)n1 [Imatinib Mesylate (STI571), Imatinib Mesylate]	TM Shift LIMK2 (K) ([2]; 10 µM): 0.8 K
1.2	0	–	–	C=CCn1c(=O)c2cnc(Nc3ccc(N4CCN(C)CC4)cc3)nc2n1-c1cccc(C(C)(C)O)n1 [MK-1775]	–
–	–	2.0	0.0	Cc1ccc(-c2nn(C(C)(C)C)c3ncnc(N)c23)cc1 [PP1]	–
–	6.2	–	–	Cc1ccc(Nc2nccc(N(C)c3ccc4c(C)n(C)nc4c3)n2)cc1S(N)(=O)=O [Pazopanib]	–
0.2	-0.3	–	–	Cc1cc(Nc2ncc(Cl)c(Nc3ccccc3S(=O)(=O)C(C)C)n2)c(OC(C)C)cc1C1CCNCC1 [LDK378]	–
